Reference: PubChem BioAssay (NCI)
Where “and” joins values, the source holds several entries; their conditions need not be identical. Equal entries are not always repeated.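 Five compound concentrations were applied to cells in 96-well plates for 48 hours; endpoints were derived by simple linear interpolation of the resulting dose-response curve. The concentration for 50% growth inhibition is given as GI50. TGI: concentration producing complete growth inhibition.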

Experiments:
Assay in all cases: NCI anticancer screen, dose series, 48 h
[1] = test system: SNB-19 CNS
[2] = test system: SF-295 CNS
[3] = test system: MDA-MB-435
[4] = test system: PC-3 prostate
[5] = test system: HL-60(TB) leukemia
[6] = test system: NCI-H522 lung
[7] = test system: SK-OV-3 ovarian
[8] = test system: A498 renal
[9] = test system: NCI-H460 lung
[10] = test system: EKVX NSCLC

SMILES	GI50 [1]	TGI [1]	GI50 [2]	TGI [2]	GI50 [3]	TGI [3]	GI50 [4]	TGI [4]	GI50 [5]	TGI [5]	GI50 [6]	TGI [6]	GI50 [7]	TGI [7]	GI50 [8]	TGI [8]	GI50 [9]	TGI [9]	GI50 [10]	TGI [10]
CN1CCN(Cc2ccc(NC(=O)c3cncc(C#Cc4c(N)ncc5c(F)cccc45)c3)cc2C(F)(F)F)CC1	0.867 µM	1.59 µM	0.89 µM	1.77 µM	0.597 µM	1.24 µM	0.787 µM	1.6 µM	0.33 µM	1.22 µM	0.75 µM	1.66 µM	2.14 µM	7.45 µM	0.763 µM	1.55 µM	0.803 µM	1.57 µM	0.732 µM	1.46 µM
CON=C1C[C@]2(C[C@@H]3C[C@@H](C/C=C(\C)C[C@@H](C)/C=C/C=C4\CO[C@@H]5[C@H](O)C(C)=C[C@@H](C(=O)O3)[C@]45O)O2)O[C@H](/C(C)=C/C(C)C)[C@H]1C	15.7 µM	35.3 µM	9.16 µM	22 µM	7.98 µM	21.5 µM	2.63 µM	11.2 µM	2.48 µM	5.92 µM	12 µM	26.1 µM	15.2 µM	28.5 µM	10.5 µM	22.9 µM	13.1 µM	30.3 µM	6.99 µM	24 µM
O=C(CN1CCN(CCN2C(=O)c3cccc4cccc(c34)C2=O)CC1)Nc1ccc2ncsc2c1	4.5 µM	21.7 µM	4.9 µM	20.7 µM	5.52 µM	20.4 µM	6.31 µM	34.6 µM	10.2 µM	27.5 µM	3.96 µM	18 µM	8.35 µM	23.3 µM	22.3 µM	> 100 µM	3.58 µM	14.7 µM	9.79 µM	39.2 µM
Cc1ccc(S(=O)(=O)OCC(=O)Nc2ccc(C(=O)O)c(O)c2)cc1	66.5 µM	242 µM	167 µM	322 µM	39.9 µM	169 µM	30.4 µM	131 µM	26.1 µM	193 µM	11.9 µM	34.6 µM	49.5 µM	188 µM	36.4 µM	105 µM	124 µM	292 µM	165 µM	332 µM
[N-]=[N+]=NCCCn1c2c(c3ccc([N+](=O)[O-])cc3c1=O)C(=O)c1cc(I)ccc1-2	4.62 µM	> 100 µM	1.54 µM	> 100 µM	34.3 µM	> 100 µM	11 µM	> 100 µM	3.79 µM	26.3 µM	1.68 µM	12.4 µM	2.11 µM	8.74 µM	6.52 µM	28.5 µM	0.449 µM	11.6 µM	22 µM	> 100 µM
C[C@]12CCCN1CC1=NNC(=O)c3cc(F)cc4[nH]c2c1c34	25.1 µM	> 100 µM	16.1 µM	51.1 µM	23.7 µM	80.6 µM	20.7 µM	> 100 µM	25 µM	66.9 µM	21.9 µM	63.6 µM	25.9 µM	> 100 µM	13.9 µM	34.3 µM	11.5 µM	> 100 µM	13.6 µM	49.7 µM
COC(=O)CC1C2(C)C3=C(C)C(c4ccoc4)CC3OC2C2OC(=O)C3(C)C=CC(=O)C1(C)C23 (stereo not given)	–	7.1 µM	–	13 µM	–	2.69 µM	–	3.43 µM	–	2.76 µM	–	3.22 µM	–	14.9 µM	–	4.99 µM	–	3.26 µM	–	3.89 µM
CS(=O)(=O)c1ccc2c(c1)C(=O)c1c-2n(CCCBr)c(=O)c2cc([N+](=O)[O-])ccc12	6.03 µM	> 100 µM	2.07 µM	33.5 µM	82.6 µM	> 100 µM	9.94 µM	> 100 µM	3.37 µM	> 100 µM	4.87 µM	> 100 µM	7.58 µM	> 100 µM	0.127 µM	14.8 µM	0.718 µM	> 100 µM	> 100 µM	> 100 µM
CC(C)n1nc(C#Cc2cccc(O)c2)c2c(N)ncnc21	3.02 µM and 2.16 µM	21.4 µM and 14.4 µM	3.16 µM and 1.17 µM	12.2 µM and 3.58 µM	0.882 µM and 0.655 µM	5.5 µM and 5.03 µM	1.37 µM and 1.18 µM	12.3 µM and 13.9 µM	0.832 µM and 0.217 µM	10.8 µM and 20.2 µM	0.627 µM	5.33 µM and 4.55 µM	0.978 µM and 1.01 µM	3.67 µM	1.56 µM and 1.71 µM	6.5 µM and 4.29 µM	1.34 µM and 1.13 µM	9.9 µM and 13.1 µM	9.41 µM and 7.49 µM	29 µM and 25.7 µM
COc1ccc(N=N/C(=N\NC(=O)c2cc(Br)ccc2O)c2ccc(N(CCC#N)CCC#N)cc2OC)cc1	> 150 µg/mL	> 150 µg/mL	73.8 µg/mL	> 150 µg/mL	> 150 µg/mL	> 150 µg/mL	57.6 µg/mL	> 150 µg/mL	56.7 µg/mL	> 150 µg/mL	40.1 µg/mL	141 µg/mL	80.6 µg/mL	> 150 µg/mL	> 150 µg/mL	> 150 µg/mL	33.5 µg/mL	109 µg/mL	> 150 µg/mL	> 150 µg/mL
Nc1nc(=S)c2ncn(C3OC(CO)C(O)C3O)c2[nH]1 (stereo not given)	33.1 µM	> 100 µM	0.531 µM	> 100 µM	1.02 µM	> 69.6 µM	2.34 µM	> 100 µM	1.67 µM	11 µM	1.8 µM	> 100 µM	0.379 µM	7.76 µM	5.11 µM	> 87.6 µM	0.571 µM	12.2 µM	2.02 µM	> 100 µM
O=C(/C=C/c1ccco1)Nc1ncc(Cc2cccc(C(F)(F)F)c2)s1	0.1 µM	> 44.5 µM	0.0678 µM	1.42 µM	0.0207 µM	0.0533 µM	0.055 µM	> 44.3 µM	0.0604 µM	0.19 µM	0.0321 µM	0.328 µM	0.0626 µM	7.45 µM	0.0267 µM	1.73 µM	0.0401 µM	9.59 µM	0.117 µM	> 55.8 µM
O=C(COc1cccc(/C=C2\COc3ccccc3C2=O)c1)c1ccccc1	11.8 µM	24 µM	1.93 µM	15.8 µM	3.14 µM	10.7 µM	2.11 µM	5.16 µM	5.85 µM	29.2 µM	1.81 µM	3.79 µM	15.2 µM	29 µM	0.266 µM	6.78 µM	12.3 µM	24.9 µM	7.98 µM	20.6 µM
NC(CP(=O)(O)O)C(=O)O (stereo not given)	–	> 100 µM	–	> 100 µM	–	> 100 µM	–	> 100 µM	–	> 100 µM	–	> 100 µM	–	> 100 µM	–	> 100 µM	–	> 100 µM	–	> 100 µM
